The text below walks through data of PubChem BioAssay (NCI).

What all share (experiment): growth of human tumour cells (NCI), 48 h
Test [1] relates to 786-0 renal.
Test [2] concerns HCC-2998 colon.
The test system of test [3] is HCT-15 colon.
Test [4] has as its system K-562 leukemia.
The test system of test [5] is KM12 colon.
Test [6] relates to NCI-H23 lung.
In test [7] the test system is SF-268 CNS.
The test system of test [8] is SF-295 CNS.
Test [9] relates to SK-MEL-28 melanoma.
For test [10], the system named is UACC-257 melanoma.

Values joined by “and” are separate entries in the source; they are usually repeats but may differ in a detail not shown here. Identical values can stand only once.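 These data come from cells grown in 96-well plates and exposed to compound for 48 hours at five concentrations. The concentration for 50% growth inhibition is given as GI50. TGI: total growth inhibition.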

Regarding `Cc1cccc(C(C)C)c1N1C(=O)C(=O)C(c2nc3ccccc3o2)C(=O)C1=O`, the TGI in test [1], in test [2], in [3], in test [4], in test [5] and in [6] was > 100 µM throughout. Further, the TGI in test [7], in [8], in test [9] and in [10] was > 100 µM in each case.
As to `Nc1c(O)cc(N=C2C(=O)C=CC=C2C(=O)O)c(O)c1C(=O)O`, the TGI was > 100 µM in test [1]; > 31.6 µM in test [2]; > 100 µM in test [3]; > 100 µM in test [4]; > 100 µM in [5]; > 100 µM in test [6]. Moreover, the values for the TGI in [8], in [9] and in [10] were > 100 µM, > 41.3 µM and > 100 µM, respectively.
With `Cc1ccc(-c2c3c(nn2-c2ccc(S(N)(=O)=O)cc2)-c2ccccc2C3)cc1`, the GI50 in test [1] was 15.2 µM; in test [2], 8.54 µM; in [3], 20.2 µM; in test [4], 16.2 µM; in test [5], 15.5 µM; in test [6] it was 22.3 µM. In addition, the GI50 in [7] is 20.3 µM; in [8], 20.7 µM; in test [9] it was 17.7 µM; in test [10], 21.9 µM. The TGI is 31.8 µM in test [1]; 25.8 µM in test [2]; 42.4 µM in test [3]; 53.9 µM in test [4]; 43.6 µM in test [5]; 45.2 µM in [6]. The TGI worked out at 44.7 µM in test [7], 47.3 µM in test [8], 33.8 µM in test [9] and 40.3 µM in [10].
As to `CC1=C(/C=C/C(C)=C/C=C/C(C)=C/C=N/NC(=S)NC(=S)N/N=C/C=C(C)/C=C/C=C(C)/C=C/C2=C(C)CCCC2(C)C)C(C)(C)CCC1`, the GI50 is 1.75 µM and 0.944 µM in test [1]; 6.73 µM and 4.07 µM in [2]; 2.68 µM and 1.89 µM in [3]; 1.96 µM and 1.29 µM in test [4]; 2.74 µM and 1.32 µM in [5]; 1.76 µM and 1.17 µM in test [6]. Besides, the GI50 was 5.38 µM and 2.47 µM in [7]; 4.09 µM and 2.1 µM in test [8]; 3.23 µM and 1.85 µM in test [9]; 5.49 µM and 3.64 µM in test [10]. Also, the TGI in [1] was 5.09 µM and 1.85 µM; in test [2] it was 13.5 µM and 11.8 µM; in [3], 9.82 µM and 8.2 µM; in test [4], 8.62 µM and 6.63 µM; in [5] it was 9.21 µM and 3.97 µM; in test [6], 7.28 µM and 4.37 µM. Besides, the TGI in test [7] was 11.9 µM and 9.11 µM; in test [8], 11.7 µM and 9.42 µM; in test [9], 9.12 µM and 6.78 µM; in test [10], 12 µM and 9.82 µM.
In the case of `CCCCCCNC(=O)Oc1ccc(/C(=C(/C)Cc2ccc(OC)cc2)c2ccc(OCCCN(C)C)cc2)cc1`, the GI50 in test [1] is 13.1 µM; in [2], 14.6 µM; in test [3] it was 8.71 µM; in test [4], 3.74 µM; in test [5] it was 13.9 µM; in test [6] it was 15.1 µM. Further, the GI50 was 15 µM in [7], 14.7 µM in test [8], 14.5 µM in [9] and 19.3 µM in test [10]. Moreover, the TGI came out at 28.4 µM in [1]; 29.2 µM in test [2]; 21.9 µM in [3]; 19.1 µM in test [4]; 27.7 µM in test [5]; 29.9 µM in [6]. Also, the TGI in test [7] was 30.5 µM; in test [8] it was 28.3 µM; in test [9], 28.1 µM; in [10], 35.3 µM.
Regarding `N#CC1CCCCOCCOCCOCCOCCOCCCCCC1=O` (stereo not drawn), the TGI in [1], in [2], in [3], in test [4], in test [5] and in [6] was > 100 µM each time. Moreover, the TGI in [7], in test [8], in test [9] and in [10] was > 100 µM throughout.
In the case of `O=c1cc(-c2c[nH]c3ccccc23)[nH]c2cc3c(cc12)OCO3`, the TGI in test [1], in test [2], in test [3], in test [4], in [6] and in test [7] was > 100 µM in each case. For the same compound, the TGI in test [8], in [9] and in test [10] was > 100 µM each time.
In the case of `CC(=O)OC1=CC2=CC[C@H]3[C@@H]4CCC(=O)[C@@]4(C)CC(=O)[C@]3(S)[C@@]2(C)CC1`, the TGI in [1] was 87 µM; in test [2], 65.1 µM; in [3], > 100 µM; in [4], 76.7 µM; in [5] it was > 100 µM; in test [6] it was > 100 µM. In addition, the TGI in [7] is 89.6 µM; in test [8], > 100 µM; in [9] it was > 100 µM; in [10], 79.6 µM.
As for `CN(COC(=O)c1ccccc1)c1nc(N(C)COC(=O)c2ccccc2)nc(N(C)COC(=O)c2ccccc2)n1`, the TGI was 46.5 µM in [1]; > 100 µM in test [2]; > 100 µM in test [3]; > 100 µM in [4]; > 100 µM in test [5]; > 100 µM in test [6]. Besides, the TGI in test [7] was > 88.1 µM; in test [8], > 84.9 µM; in [9], > 100 µM; in test [10], > 100 µM.
Regarding `CN(C)C(=Nc1nc(=[N+](C)C)ss1)N(C)C`, the TGI in [1], in test [2], in [3], in test [4], in test [5] and in [6] was > 100 µM each time. Also, the TGI in test [7], in test [8], in [9] and in [10] was > 100 µM throughout.
